From patent US4652562A, “Quinoline derivatives and pharmaceutical compositions” (Egis Gyogyszergyar, priority 1985, dated 1987)

Key:
[1] = test system: hypoxic Chinese hamster ovary cells; assay: Radiosensitization of hypoxic Chinese hamster ovary cells, radiation survival curves (Do, Dq, N); assay type: cell-based; details: for Do (mean lethal dose): hypoxic CHO cells, untreated controls 3.75-3.8 Gy; for Dq (quasi threshold dose): Dq = Do ln N, minimum dose necessary to appearance of cell killing
From the text: As is known [T. W. Wong, G. F. Whitmore and S. Gulyas: Radiat. Res. 75, 541-555 (1978)], parameters derived from radiation survival curves can be used for characterization of modifying effect, e.g. the slope of the exponential portion of survival curve and the calculated mean lethal dose (Do) as well as the overall extrapolation number (N).
The dose multiplication radiosensitization (DMR) means the ability of a given compound to increase the slope of the survival curve and consequently to decrease the mean lethal dose (Do).
On the effect of dose-additive radiosensitization (DAR) there is a reduction in the shoulder region of radiation survival curves, and in the best cases the sigmoid type survival curves characteristic of mammalian cells change into exponential ones.
For the degree of radiation modification, the quasi threshold dose (Dq) can be used, as well. This dose represents the width of shoulder region of radiation survival curves (Dq =Do ln N). The meaning of this measure from radiobiological point of view is the minimal dose necessary to produce appreciable cell killing effect.
1. […] According to the literature data, studies were undertaken on the same test-systems [Chinese hamster ovary cells cultured in vitro (CHO) and under similar circumstances (oxygenic- and hypoxic conditions, α-MEM with 10% foetal calf serum)].
Experiments were undertaken with hypoxic Chinese hamster ovary cells.
4. Determination of the quasi threshold dose (Dq). These values indicate the minimum dose necessary to the appearance of the end point (cell killing) studied from biological point of view.

[2] = cited from earlier work
[3] = Toxicity in test animals (CFLP mice), LD50 per os; details: mouse, in vivo, po
[4] = test system: hypoxic cells; details: literature (Wong et al. 1978); cited from earlier work

Structure (SMILES)	Do (mean lethal dose) [1] [Gy]	dose-multiplicative or dose-additive radiosensitization ([2]; 0° C., depending on drug concentration, Harris et al. 1975)	toxicity ([2]; 37° C.)	LD50 [3] [mg/kg]	Dq (quasi threshold dose) [1] [Gy]	Dq (quasi threshold dose) ([1]; listed as misonidazole)	degree of dose-multiplicative and dose-additive radiosensitization [4]
CN(C)C(=O)N=NC(=O)N(C)C [Diamide, tetramethyl-diazene-dicarboxamide]	3.3	either dose-multiplicative- or dose-additive-radiosensitization could be observed at a lower temperature (0° C.) depending on the drug concentration applied, but both effects did not appear simultaneously	extremely toxic				
NC(=Nc1c([N+](=O)[O-])cnc2ccccc12)N1CCOCC1 [Example 1, N-(3-Nitro-4-quinolyl)-morpholino carboxamidine]	1.7			> 2000	0		
COCC(O)Cn1ccnc1[N+](=O)[O-] (stereo not shown) [Misonidazole, 3-methoxy-1-(2-nitro-1-imidazole-1-yl)-2-propanol]	2.5				5	above 5 Gy	only in a small degree
